A short description of data set [1]: In vitro mouse hepatocytic intrinsic clearance. Particulars: male, CD-1, mouse, hepatocytes.
For the next data set, the target named is CYP2D6 (Homo sapiens, UniProt P10635). Briefly: CYP phenotyping, CYP bactosomes. Particulars: for half-life, CYP isoform 2D6 / intrinsic clearance, CYP isoform 2D6: E. coli CYPEX membranes, 100 pmol/mL CYP; for projected scaled intrinsic clearance, CYP isoform 2D6: scaled by estimated CYP abundance in human liver microsomes (0.012 nmol CYP/mg).
For another data set, the target named is T1, CYP2C8 (Homo sapiens, UniProt P10632).
T1 sequence (P10632 1-490): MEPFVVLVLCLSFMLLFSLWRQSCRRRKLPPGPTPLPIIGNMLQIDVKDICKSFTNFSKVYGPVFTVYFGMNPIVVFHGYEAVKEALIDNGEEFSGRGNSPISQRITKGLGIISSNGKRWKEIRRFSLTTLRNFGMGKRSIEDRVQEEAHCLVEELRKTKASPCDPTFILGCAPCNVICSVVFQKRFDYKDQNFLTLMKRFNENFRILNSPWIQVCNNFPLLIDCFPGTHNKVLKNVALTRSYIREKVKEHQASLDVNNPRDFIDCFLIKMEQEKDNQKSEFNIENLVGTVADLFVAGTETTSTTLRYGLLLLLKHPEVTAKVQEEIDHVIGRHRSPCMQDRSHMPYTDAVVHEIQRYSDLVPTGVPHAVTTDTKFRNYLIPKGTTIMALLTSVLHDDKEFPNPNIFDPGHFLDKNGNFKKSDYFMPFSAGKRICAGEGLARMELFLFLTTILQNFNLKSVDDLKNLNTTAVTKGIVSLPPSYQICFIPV
Briefly: in vitro. The note with it: E. coli CYPEX membranes, 100 pmol/mL CYP. As for the experimental part:
(§1) Samples were taken at predetermined time points.
(§2) Samples were then centrifuged at −4° C.
(§3) Positive control markers are as specified in Table 11.

In the next data set the target is T2, CYP1A2 (Homo sapiens, UniProt P05177).
T2 sequence (P05177 1-516): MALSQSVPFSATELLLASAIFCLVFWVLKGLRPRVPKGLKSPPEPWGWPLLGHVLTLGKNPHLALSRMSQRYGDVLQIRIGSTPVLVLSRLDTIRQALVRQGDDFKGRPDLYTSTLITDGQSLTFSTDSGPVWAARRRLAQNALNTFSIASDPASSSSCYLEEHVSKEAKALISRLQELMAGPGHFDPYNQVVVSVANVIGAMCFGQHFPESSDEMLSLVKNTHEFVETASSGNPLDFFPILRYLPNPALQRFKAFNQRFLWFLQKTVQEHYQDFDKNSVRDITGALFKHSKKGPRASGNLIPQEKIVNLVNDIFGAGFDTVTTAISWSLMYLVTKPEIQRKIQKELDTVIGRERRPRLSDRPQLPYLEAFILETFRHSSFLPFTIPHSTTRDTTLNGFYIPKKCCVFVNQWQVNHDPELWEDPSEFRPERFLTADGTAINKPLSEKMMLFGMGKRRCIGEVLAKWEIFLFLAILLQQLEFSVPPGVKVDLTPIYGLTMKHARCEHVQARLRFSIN
Briefly: in vitro. Particulars: E. coli CYPEX membranes, 100 pmol/mL CYP. The procedure:
as §1, §2, §3

Another data set has as its target T3, CYP2B6 (Homo sapiens, UniProt P20813).
T3 sequence (P20813 1-491): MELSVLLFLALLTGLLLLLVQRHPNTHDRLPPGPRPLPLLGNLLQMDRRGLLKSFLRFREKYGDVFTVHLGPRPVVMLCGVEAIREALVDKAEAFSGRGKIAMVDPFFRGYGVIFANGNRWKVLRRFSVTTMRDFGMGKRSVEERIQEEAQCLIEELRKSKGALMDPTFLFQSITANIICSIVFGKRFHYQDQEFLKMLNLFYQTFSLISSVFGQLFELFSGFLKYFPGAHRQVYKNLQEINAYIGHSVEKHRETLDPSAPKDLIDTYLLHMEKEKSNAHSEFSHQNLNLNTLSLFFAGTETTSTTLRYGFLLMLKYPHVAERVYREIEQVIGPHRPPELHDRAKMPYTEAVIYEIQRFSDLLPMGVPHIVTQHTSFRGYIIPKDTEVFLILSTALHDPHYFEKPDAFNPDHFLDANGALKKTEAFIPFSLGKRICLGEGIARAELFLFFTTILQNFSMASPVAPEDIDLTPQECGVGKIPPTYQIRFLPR
The experiment in a line: in vitro. Particulars: E. coli CYPEX membranes, 100 pmol/mL CYP. As for the experimental part: as §1, §2, §3

The target of another data set is CYP3A5 (Homo sapiens, UniProt P20815). The experiment in a line: in vitro. The note with it: E. coli CYPEX membranes, 100 pmol/mL CYP. The procedure: as §1, §2, §3
Another data set has as its target CYP3A4 (Homo sapiens, UniProt P08684). Briefly: CYP phenotyping, CYP bactosomes. The note with it: E. coli CYPEX membranes, 100 pmol/mL CYP. As for the experimental part: as §1, §2, §3
The target of the next data set is CYP2C9 (Homo sapiens, UniProt P11712). Briefly: CYP phenotyping, CYP bactosomes. As for the experimental part: as §1, §2, §3
Another data set deals with CYP2C19 (Homo sapiens, UniProt P33261). The experiment in a line: CYP phenotyping, CYP bactosomes. The note with it: for half-life, CYP isoform 2C19 / intrinsic clearance, CYP isoform 2C19: E. coli CYPEX membranes, 100 pmol/mL CYP; for projected scaled intrinsic clearance, CYP isoform 2C19: scaled by estimated CYP abundance in human liver microsomes (0.009 nmol CYP/mg). As for the experimental part:
as §1, §2, §3

The nature of data set [2]: Human liver mitochondrial fraction intrinsic clearance of SPL026, SPL028i, SPL028iii, SPL028viii. Type of data set: in vitro ADME. The note with it: for Intrinsic Clearance / half-life: 0.5 mg/mL human liver mitochondrial fraction (Table 10). The text has this: (§4) Human Liver Mitochondrial (HLMt) fractions contain high quantities of MAO enzymes and therefore, provide a useful tool to measure the clearance of MAO substrates.

Data set [3] can be described thus: Human liver mitochondrial fraction intrinsic clearance of SPL026 with/without MAO-A and MAO-B inhibitors. In kind it is in vitro ADME.
From the text: as §4

Data set [4] deals with human (mixed gender) hepatocytes. Briefly: In vitro intrinsic clearance in human hepatocytes with and without MAO-A/B inhibitor combination (first experiment). The note with it: for % change in half-life, MAO inhibitors vs no inhibitors / % change in intrinsic clearance, MAO inhibitors vs no inhibitors: human hepatocytes (Table 5); for Intrinsic clearance, with inhibitors / Half-life, without inhibitors / Intrinsic clearance, without inhibitors / Half-life, with inhibitors: human hepatocytes.
Procedure: Standard final incubation conditions are 1 μM compound in buffer containing nominally ˜0.5 million viable cells/mL, ˜0.9% (v/v) acetonitrile (MeCN) and ˜0.1% (v/v) DMSO (specific assay concentrations outlined above, section 2).
Samples are then centrifuged at 4° C.

Where [5] appears, read: E. coli CYPEX membranes, 100 pmol/mL CYP.
Where [6] appears, read: 0.5 mg/mL human liver mitochondrial fraction, DMSO Vehicle (no inhibitor).
Where [7] appears, read: with 100 nM clorgyline + 100 nM deprenyl/selegiline (Table 3).
Where [8] appears, read: with MAO-A/B inhibitor combination (Table 5).
The mark [9] stands for this setting: without MAO inhibitors (Table 4; unit given only in Table 5).
Setting [10] is: without MAO-A/B inhibitor combination (Table 5).
Setting [11] is: human, recombinant enzyme, pH 7.4.

Structures are written as SMILES.

Chain of CYP3A5 (P20815 whole entry): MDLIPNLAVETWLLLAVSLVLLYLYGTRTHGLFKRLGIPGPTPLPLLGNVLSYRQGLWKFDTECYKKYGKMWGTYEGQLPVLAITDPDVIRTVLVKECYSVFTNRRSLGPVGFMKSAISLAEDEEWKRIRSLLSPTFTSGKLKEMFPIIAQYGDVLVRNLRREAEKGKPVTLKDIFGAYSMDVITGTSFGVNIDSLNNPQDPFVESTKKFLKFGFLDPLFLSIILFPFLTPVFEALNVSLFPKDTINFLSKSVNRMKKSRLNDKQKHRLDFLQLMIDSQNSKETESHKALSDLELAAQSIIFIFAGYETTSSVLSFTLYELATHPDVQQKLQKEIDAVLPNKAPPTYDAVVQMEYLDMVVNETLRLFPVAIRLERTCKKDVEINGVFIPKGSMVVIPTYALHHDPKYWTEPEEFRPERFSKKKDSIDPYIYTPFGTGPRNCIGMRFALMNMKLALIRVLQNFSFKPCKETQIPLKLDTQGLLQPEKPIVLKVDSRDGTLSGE
Chain of CYP3A4 (P08684 whole entry): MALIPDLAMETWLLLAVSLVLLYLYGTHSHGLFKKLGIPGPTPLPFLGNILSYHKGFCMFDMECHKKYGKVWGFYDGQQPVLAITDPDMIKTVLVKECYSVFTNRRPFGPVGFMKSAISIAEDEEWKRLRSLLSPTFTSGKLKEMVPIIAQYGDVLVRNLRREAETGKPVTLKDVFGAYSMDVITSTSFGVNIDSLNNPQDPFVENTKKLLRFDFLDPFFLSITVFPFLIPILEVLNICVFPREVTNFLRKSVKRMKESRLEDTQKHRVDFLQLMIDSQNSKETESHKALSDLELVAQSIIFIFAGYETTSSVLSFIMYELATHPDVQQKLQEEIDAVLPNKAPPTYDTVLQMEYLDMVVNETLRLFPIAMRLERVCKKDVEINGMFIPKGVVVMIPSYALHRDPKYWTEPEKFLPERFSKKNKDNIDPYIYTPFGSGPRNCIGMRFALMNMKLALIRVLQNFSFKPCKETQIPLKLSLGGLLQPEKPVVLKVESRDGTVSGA
Chain of CYP2C19 (P33261 whole entry, canonical isoform): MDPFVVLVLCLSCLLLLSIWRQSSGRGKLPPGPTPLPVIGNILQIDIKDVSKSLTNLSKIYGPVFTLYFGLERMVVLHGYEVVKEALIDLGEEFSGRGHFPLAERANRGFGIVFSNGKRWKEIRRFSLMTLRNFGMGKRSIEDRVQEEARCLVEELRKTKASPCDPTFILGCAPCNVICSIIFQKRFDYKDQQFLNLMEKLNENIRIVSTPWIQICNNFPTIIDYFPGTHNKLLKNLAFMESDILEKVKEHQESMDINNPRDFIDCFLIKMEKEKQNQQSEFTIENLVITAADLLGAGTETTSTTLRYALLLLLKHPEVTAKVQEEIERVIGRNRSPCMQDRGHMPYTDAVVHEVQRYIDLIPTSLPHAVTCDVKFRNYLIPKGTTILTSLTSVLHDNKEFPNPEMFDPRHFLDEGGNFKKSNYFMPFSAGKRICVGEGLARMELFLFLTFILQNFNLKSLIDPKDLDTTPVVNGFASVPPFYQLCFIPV
Chain of CYP2C9 (P11712 whole entry, canonical isoform): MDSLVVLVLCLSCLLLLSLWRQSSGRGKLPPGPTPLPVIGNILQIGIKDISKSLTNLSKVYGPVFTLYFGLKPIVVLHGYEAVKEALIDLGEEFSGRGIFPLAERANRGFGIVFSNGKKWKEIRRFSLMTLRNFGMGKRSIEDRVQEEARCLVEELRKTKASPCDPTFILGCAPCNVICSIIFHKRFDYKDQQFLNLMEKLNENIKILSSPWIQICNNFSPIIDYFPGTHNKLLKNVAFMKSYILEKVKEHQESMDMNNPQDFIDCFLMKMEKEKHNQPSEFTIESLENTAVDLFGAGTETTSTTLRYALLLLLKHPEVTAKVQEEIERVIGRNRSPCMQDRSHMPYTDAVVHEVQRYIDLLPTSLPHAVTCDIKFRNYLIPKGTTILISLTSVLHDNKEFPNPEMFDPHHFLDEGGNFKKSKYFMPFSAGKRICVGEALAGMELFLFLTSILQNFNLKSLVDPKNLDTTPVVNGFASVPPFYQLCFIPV
Chain of CYP2D6 (P10635 whole entry, canonical isoform): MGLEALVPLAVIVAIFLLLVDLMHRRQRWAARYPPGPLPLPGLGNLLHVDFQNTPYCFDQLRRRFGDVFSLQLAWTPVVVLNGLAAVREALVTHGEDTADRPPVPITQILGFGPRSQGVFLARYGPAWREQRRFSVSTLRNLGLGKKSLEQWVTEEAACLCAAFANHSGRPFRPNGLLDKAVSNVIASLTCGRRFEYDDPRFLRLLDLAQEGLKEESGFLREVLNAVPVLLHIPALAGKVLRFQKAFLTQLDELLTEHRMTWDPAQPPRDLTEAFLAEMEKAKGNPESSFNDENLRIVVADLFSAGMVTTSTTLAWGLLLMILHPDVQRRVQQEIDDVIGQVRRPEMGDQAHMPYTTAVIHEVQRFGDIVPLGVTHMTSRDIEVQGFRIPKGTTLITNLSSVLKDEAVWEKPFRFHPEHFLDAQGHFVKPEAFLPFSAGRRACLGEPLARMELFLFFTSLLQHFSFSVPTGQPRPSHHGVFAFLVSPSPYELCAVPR
Procedure for CYP2D6: The CYPs used in this study are heterologously expressed in E. coli and purchased as individualised forms (CYP bactosomes) from CYPEX. Bactosomes contain recombinant CYP isoenzymes combined with CYP reductase leading to a higher specific activity than liver microsomes.
Phosphate buffer is prepared at 0.1 M, pH 7.4 by combining 0.1 M Na2HPO4 and 0.1 M KH2PO4 solutions.
Nicotinamide adenine dinucleotide 2′-phosphate reduced tetrasodium salt hydrate (NADPH) is prepared at 10 m<in 0.1 M phosphate buffer (pH 7.4).
The individual CYP bactosomes are thawed at room temperature undiluted to 200 pmol/mL and 0.1 M phosphate buffer.
Standard final incubation conditions are 1-3 μM compound in a buffer containing 100 pmol/mL CYP bactosome, 1% (v/v) DMSO.
The elimination rate constant (k) is calculated using the slope of a ln (MS peak area or response—if internal standard is used) vs. time plot of the test compounds and markers.
Intrinsic clearance in μL/min/nmol CYP is calculated using the following equation: Clint=−1000 k/CYP concentration
Projected CYP isoform intrinsic clearance accounting for estimated CYP abundance in human liver microsomes (μL/min/mg microsomal protein)* is calculated using the following equation: Projected set isoform intrinsic clearance=Estimated CYP abundance*Clint * Estimated CYP abundance is taken as an average from three literature references 1, 2 3 and the abundances used are as follows (nmol CYP/mg Human Liver Microsomal Protein):

In [1], `COc1ccc([C@@H]2Sc3ccccc3N(CCN(C)C)C(=O)[C@@H]2OC(C)=O)cc1` [Diltiazem, reference compound] returned a half-life at 5 μM below 0.05 h and a hepatocyte CLint at 5 μM above 460 µL/min/1e6 cells.
Regarding `CN(C)CCc1c[nH]c2ccccc12` [DMT in SPL028i], at CYP2D6, the “half-life, CYP isoform 2D6” value was 0.167 h; the “intrinsic clearance, CYP isoform 2D6” value is recorded as 687 μL/min/nmol CYP; the “projected scaled intrinsic clearance, CYP isoform 2D6” value is 8.1 μl/min/mg microsomal protein. Also, on CYP2C8, the “half-life, CYP isoform 2C8” value is above 4 h and the “intrinsic clearance, CYP isoform 2C8” value is given as below 29 μL/min/nmol CYP. In addition, on CYP1A2, the “half-life, CYP isoform 1A2” value is above 4 h. Further, the “half-life, CYP isoform 2B6” value at CYP2B6 is above 4 h. Moreover, at CYP3A5, the “half-life, CYP isoform 3A5” value was above 4 h and the “intrinsic clearance, CYP isoform 3A5” value is below 29 μL/min/nmol CYP. Besides, on CYP3A4, the “half-life, CYP isoform 3A4” value was above 4 h and the “intrinsic clearance, CYP isoform 3A4” value is recorded as below 29 μL/min/nmol CYP. Besides, on CYP2C9 (setting [5]), the “half-life, CYP isoform 2C9” value was above 4 h and the “intrinsic clearance, CYP isoform 2C9” value was below 29 μL/min/nmol CYP. Besides, at CYP2C19, the “half-life, CYP isoform 2C19” value was 2.93 h; the “intrinsic clearance, CYP isoform 2C19” value is listed as 40 μL/min/nmol CYP; the “projected scaled intrinsic clearance, CYP isoform 2C19” value is given as 0.4 μl/min/mg microsomal protein.
As for `NCCc1c[nH]c2ccc(O)cc12` [Serotonin, reference compound], in [2], the “Intrinsic Clearance” value was found to be 151.0 μL/min/mg protein and the half-life was 0.153 h. This compound had a half-life in data set [3] (setting [6]) of 0.185 h. This compound also had a half-life in data set [3] (human liver mitochondrial fraction, Clorgyline (MAO-A inhibitor) 100 nM) above 7.003 h. In data set [1], the half-life at 5 μM turned out to be 0.38 h and the hepatocyte CLint at 5 μM is 83 µL/min/1e6 cells. For the same compound, in [4], the “% change in half-life, MAO inhibitors vs no inhibitors” value was found to be 73.75% and the “% change in intrinsic clearance, MAO inhibitors vs no inhibitors” value is recorded as −282.18%. Also, in [4] (setting [7]), the “Intrinsic clearance, with inhibitors” value was 10.10 μL/min/million cells. Besides, the “Intrinsic clearance, with inhibitors” value in data set [4] (setting [8]) amounted to 10.1 μL/min/million cells. Further, in data set [4] (setting [9]), the “Half-life, without inhibitors” value was 0.55 h. In addition, in [4] (setting [10]), the “Half-life, without inhibitors” value came to 0.55 h and the “Intrinsic clearance, without inhibitors” value was determined as 38.6 μL/min/million cells.
As to `CN(C)CCc1c[nH]c2ccccc12` [DMT in SPL028ii], at CYP2D6, the “half-life, CYP isoform 2D6” value is 0.15 h; the “intrinsic clearance, CYP isoform 2D6” value is on record as 803 μL/min/nmol CYP; the “projected scaled intrinsic clearance, CYP isoform 2D6” value was 9.5 μl/min/mg microsomal protein. At CYP2C8, the “half-life, CYP isoform 2C8” value is above 4 h and the “intrinsic clearance, CYP isoform 2C8” value is below 29 μL/min/nmol CYP. Moreover, the “half-life, CYP isoform 1A2” value on CYP1A2 is above 4 h. Also, the “half-life, CYP isoform 2B6” value at CYP2B6 was above 4 h. Also, at CYP3A5, the “half-life, CYP isoform 3A5” value is above 4 h and the “intrinsic clearance, CYP isoform 3A5” value is below 29 μL/min/nmol CYP. For the same compound, on CYP3A4, the “half-life, CYP isoform 3A4” value was above 4 h and the “intrinsic clearance, CYP isoform 3A4” value is recorded as below 29 μL/min/nmol CYP. On CYP2C9 (setting [5]), the “half-life, CYP isoform 2C9” value is above 4 h and the “intrinsic clearance, CYP isoform 2C9” value was below 29 μL/min/nmol CYP. Besides, at CYP2C19, the “half-life, CYP isoform 2C19” value was 2.7 h; the “intrinsic clearance, CYP isoform 2C19” value came to 43 μL/min/nmol CYP; the “projected scaled intrinsic clearance, CYP isoform 2C19” value is given as 0.4 μl/min/mg microsomal protein.
On to `NCc1ccccc1` [Benzylamine, reference compound], for which, in [2], the “Intrinsic Clearance” value stood at 60.0 μL/min/mg protein. Further, the half-life is 0.387 h in data set [2]; 0.507 h in data set [3] (setting [6]); above 7.003 h in [3] (human liver mitochondrial fraction, Deprenyl (MAO-B inhibitor) 100 nM). For the same compound, the “fold increase in intrinsic clearance, human liver mitochondria compared to hepatocyte fraction” value in [2] (positive controls) is around 3.6 fold. This compound displayed a half-life at 5 μM in data set [1] of 0.238 h. The compound also had a hepatocyte CLint at 5 μM in data set [1] of 134 µL/min/1e6 cells. The “% change in half-life, MAO inhibitors vs no inhibitors” value in data set [4] is recorded as above 83.41%. Further, the “% change in intrinsic clearance, MAO inhibitors vs no inhibitors” value in data set [4] is reported as below −450%. Moreover, the “Intrinsic clearance, with inhibitors” value in data set [4] (setting [7]) and in data set [4] (setting [8]) was below 3.0 μL/min/million cells throughout. The results for the “Half-life, with inhibitors” value in data set [4] (setting [8]) and in data set [4] (with MAO-A/B inhibitors (Table 4; unit given only in Table 5)) were 7.67 h and 7.6667 h, respectively. In addition, the “Half-life, without inhibitors” value was 1.272 h in data set [4] (setting [9]) and 1.27 h in data set [4] (setting [10]). Besides, the “Intrinsic clearance, without inhibitors” value in [4] (setting [10]) was 16.7 μL/min/million cells.
Take `O=C(O)Cc1ccccc1Nc1c(Cl)cccc1Cl` [Diclofenac, reference compound]: at CYP2C9 (setting [11]), the half-life came to 1 min and the “intrinsic clearance, CYP isoform 2C9” value was 4731 μL/min/nmol CYP. Also, in [1], the half-life at 5 μM was found to be 0.568 h and the intrinsic metabolic clearance (hepatocyte CLint) at 5 μM amounted to 57.7 µL/min/1e6 cells.

The half-life is how long it takes for the measured level to halve. For orientation: hepatocyte CLint means the capacity of the preparation to metabolise the compound, expressed as a volume cleared per time. Read a high hepatocyte CLint as rapid turnover.

(Values after US11773062B2, “Deuterated compounds” (priority 2021, dated 2023).)
